Measured values: patent publication US20240174634A1, “Aldehyde Dehydrogenase Inhibitors and Their Therapeutic Use” (priority 2020, published 2024)

biological target: T1, ALDH1A3 (Homo sapiens, UniProt P47895); experiment: Primary biochemical assay, NAD(P)H-Glo Detection System; parameters: His-tag; made in house; host or cells: E. coli Rosetta (DE3); details: 30 min pre-incubation, propionaldehyde and NAD at Km
T1 sequence (P47895 1-512): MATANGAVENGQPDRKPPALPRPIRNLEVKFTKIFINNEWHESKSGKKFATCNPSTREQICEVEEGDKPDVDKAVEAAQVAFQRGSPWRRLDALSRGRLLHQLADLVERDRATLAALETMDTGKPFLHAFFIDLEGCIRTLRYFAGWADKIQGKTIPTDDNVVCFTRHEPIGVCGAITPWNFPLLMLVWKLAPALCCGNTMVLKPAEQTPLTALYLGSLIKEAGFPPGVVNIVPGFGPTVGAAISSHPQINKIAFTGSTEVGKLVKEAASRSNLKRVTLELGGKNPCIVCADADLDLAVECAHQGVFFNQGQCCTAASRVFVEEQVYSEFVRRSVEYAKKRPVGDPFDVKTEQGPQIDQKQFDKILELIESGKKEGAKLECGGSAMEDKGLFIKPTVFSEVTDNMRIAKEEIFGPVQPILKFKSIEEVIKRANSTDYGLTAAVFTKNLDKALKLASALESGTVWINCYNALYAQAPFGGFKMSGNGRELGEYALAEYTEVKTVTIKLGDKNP
How it was run: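 Recombinant full-length His-tagged human enzymes expressed in E. coli were pre-incubated 30 min at room temperature with compound (10-point, 3-fold series; top 20 μM for ALDH1A3, 250 μM for ALDH1A1/1A2). Propionaldehyde and NAD were then added at Km; NADH was read by NAD(P)H-Glo luminescence. Buffer: Tris (pH 7.6 for 1A1/1A2, 9.0 for 1A3), 1 mM TCEP, 0.01% Tween-20.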

Q: For `Cc1nc(C2CCCN2CCOc2ccc3c(c2)CCC(=O)N3)cs1` (stereo not shown) [ALDHI-2033, 6-[2-[2-(2-methylthiazol-4-yl)pyrrolidin-1-yl]ethoxy]-3,4-dihydro-1H-quinolin-2-one], which IC50 is on record?
A: The IC50 was 100 to 1000 nM.

Q: Which IC50 does the source give for `O=C1CCc2cc(OCCn3ccnc3-c3ccccc3)ccc2N1` [ALDHI-2041, 6-[2-(2-phenylimidazol-1-yl)ethoxy]-3,4-dihydro-1H-quinolin-2-one] here?
A: Its IC50 is 100 to 1000 nM.

Q: For `O=C1CSc2cc(OCCN3CCCC3c3cccc(F)c3)ccc2N1` (stereo not shown) [ALDHI-2008, 7-[2-[2-(3-fluorophenyl)pyrrolidin-1-yl]ethoxy]-4H-1,4-benzothiazin-3-one], which IC50 is on record?
A: Its IC50 is < 100 nM.

Q: Which IC50 does the source give for `O=C1CCc2cc(NC(=O)c3sc(N4CCNCC4)nc3-c3cccc(F)c3)ccc2N1` [ALDHI-1005, 4-(3-fluorophenyl)-N-(2-oxo-3,4-dihydro-1H-quinolin-6-yl)-2-piperazin-1-yl-thiazole-5-carboxamide] here?
A: Its IC50 is < 100 nM.

Q: With `COc1cccc(C2CCCN2CCOc2ccc3c(c2)CCC(=O)N3)c1` (stereo not shown) [ALDHI-2034, 6-[2-[2-(3-methoxyphenyl)pyrrolidin-1-yl]ethoxy]-3,4-dihydro-1H-quinolin-2-one] as the compound, how does the IC50 read?
A: Its IC50 is 100 to 1000 nM.

Q: `Cc1cccc(-c2ncsc2C(=O)Nc2ccc3c(c2)CCC(=O)N3)c1` [ALDHI-1013, 4-(m-tolyl)-N-(2-oxo-3,4-dihydro-1H-quinolin-6-yl)thiazole-5-carboxamide] was tested. Which IC50 did it give?
A: Its IC50 is 1000 to 10000 nM.

Q: `CC1(c2ccccc2)COCCN1CCOc1ccc2c(c1)CCC(=O)N2` (stereo not shown) [ALDHI-2040, 6-[2-(3-methyl-3-phenyl-morpholin-4-yl)ethoxy]-3,4-dihydro-1H-quinolin-2-one] was tested. Which IC50 did it give?
A: The IC50 was 100 to 1000 nM.
